Patent US20250242064A1, “CXCR4-TARGETING COMPOUNDS, AND METHODS OF MAKING AND USING THE SAME” (PROVINCIAL HEALTH SERVICES AUTHORITY, priority 2022, published 2025)
Where a SMILES comes first, the peptide text is derived from it. Bridges are numbered along the chain shown (N, C = ends). [ ]: non-standard residue; d: D form. The star is where a group is joined. X3 = O=C(O)CN1CCN(CC(=O)O)CCN(CC(=O)N[C@@H](CS(=O)(=O)O)C(=O)N[C@@H](CCCCNC(=O)CCCc2ccc(Br)cc2)C(=O)*)CCN(CC(=O)O)CC1; 2Nal = N[C@@H](Cc1ccc2ccccc2c1)C(=O)O; Lys(iPr) = CC(C)NCCCC[C@H](N)C(=O)O

Test: in vivo
Design: species or system mice
Conditions: male, mouse, iv, total radioactivity
Summary of the method: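 Male NRG mice bearing subcutaneous Z138 mantle cell lymphoma xenografts (5×10^6 cells, grown to 200-300 mm^3) injected intravenously under isoflurane with 68Ga-labelled tracers. Harvested tissues weighed and gamma-counted; uptake expressed as % ID/g.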

[1] = NOD.Cg-Rag1tm1Mom Il2rgtm1Wjl/SzJ (NRG), Biodistribution: Adrenals
[2] = NOD.Cg-Rag1tm1Mom Il2rgtm1Wjl/SzJ (NRG), Biodistribution: Blood
[3] = NOD.Cg-Rag1tm1Mom Il2rgtm1Wjl/SzJ (NRG), Biodistribution: Bone
[4] = NOD.Cg-Rag1tm1Mom Il2rgtm1Wjl/SzJ (NRG), Biodistribution: Brain
[5] = NOD.Cg-Rag1tm1Mom Il2rgtm1Wjl/SzJ (NRG), Biodistribution: Heart
[6] = NOD.Cg-Rag1tm1Mom Il2rgtm1Wjl/SzJ (NRG), Biodistribution: Kidneys
[7] = NOD.Cg-Rag1tm1Mom Il2rgtm1Wjl/SzJ (NRG), Biodistribution: Liver
[8] = NOD.Cg-Rag1tm1Mom Il2rgtm1Wjl/SzJ (NRG), Biodistribution: Lungs
[9] = NOD.Cg-Rag1tm1Mom Il2rgtm1Wjl/SzJ (NRG), Biodistribution: Muscle
[10] = NOD.Cg-Rag1tm1Mom Il2rgtm1Wjl/SzJ (NRG), Biodistribution: Pancreas
[11] = NOD.Cg-Rag1tm1Mom Il2rgtm1Wjl/SzJ (NRG), Biodistribution: Small Intestine
[12] = NOD.Cg-Rag1tm1Mom Il2rgtm1Wjl/SzJ (NRG), Biodistribution: Spleen
[13] = NOD.Cg-Rag1tm1Mom Il2rgtm1Wjl/SzJ (NRG), Biodistribution: Stomach
[14] = NOD.Cg-Rag1tm1Mom Il2rgtm1Wjl/SzJ (NRG), Biodistribution: Testes
[15] = NOD.Cg-Rag1tm1Mom Il2rgtm1Wjl/SzJ (NRG), Biodistribution: Z138 Tumor
[16] = NOD.Cg-Rag1tm1Mom Il2rgtm1Wjl/SzJ (NRG), Ratio Tumor-to-Blood
[17] = NOD.Cg-Rag1tm1Mom Il2rgtm1Wjl/SzJ (NRG), Ratio Tumor-to-Bone
[18] = NOD.Cg-Rag1tm1Mom Il2rgtm1Wjl/SzJ (NRG), Ratio Tumor-to-Kidney
[19] = NOD.Cg-Rag1tm1Mom Il2rgtm1Wjl/SzJ (NRG), Ratio Tumor-to-Muscle
[20] = NOD.Cg-Rag1tm1Mom Il2rgtm1Wjl/SzJ (NRG), Ratio Tumor-to-Pancreas
[21] = NOD.Cg-Rag1tm1Momll2rgtm1Wjl/SzJ (NRG), Biodistribution: Blood
[22] = NOD.Cg-Rag1tm1Momll2rgtm1Wjl/SzJ (NRG), Biodistribution: Stomach
[23] = NOD.Cg-Rag1tm1Momll2rgtm1Wjl/SzJ (NRG), Biodistribution: Testes
[24] = NOD.Cg-Rag1tm1Momll2rgtm1Wjl/SzJ (NRG), Ratio Tumor-to-Bone
[25] = NOD.Cg-Rag1tm1Momll2rgtm1Wjl/SzJ (NRG), Ratio Tumor-to-Kidney
[26] = NOD.Cg-Rag1tm1Momll2rgtm1Wjl/SzJ (NRG), Ratio Tumor-to-Muscle
[27] = NOD.Cg-Rag1tm1Momll2rgtm1Wjl/SzJ (NRG), Ratio Tumor-to-Pancreas

SMILES: CC(C)NCCCC[C@H](NC(=O)[C@H]1CCC(=O)N[C@@H](CCCCNC(=O)[C@H](CCCCNC(=O)CCCc2ccc(Br)cc2)NC(=O)[C@H](CS(=O)(=O)O)NC(=O)CN2CCN(CC(=O)O)CCN(CC(=O)O)CCN(CC(=O)O)CC2)C(=O)N[C@@H](Cc2ccc(O)cc2)C(=O)N[C@@H](CCCCNC(C)C)C(=O)N[C@H](CCCNC(=N)N)C(=O)N[C@@H](Cc2ccc3ccccc3c2)C(=O)N[C@H](C)C(=O)N1)C(N)=O [[^177Lu]Lu-BL34L20, metal not drawn] (K(X3)Y[Lys(iPr)][dR][2Nal][dA][dE][Lys(iPr)]-NH2; lactam N-7)
- tissue uptake at 1 h [1]: 2.44 %ID/g
- tissue uptake at 3 h [1]: 2.29 %ID/g
- tissue uptake at 24 h [1]: 1.1 %ID/g
- tissue uptake at 72 h [1]: 0.81 %ID/g
- tissue uptake at 120 h [1]: 1.24 %ID/g
- tissue uptake at 1 h [2]: 14.1 %ID/g
- tissue uptake at 3 h [2]: 11.8 %ID/g
- tissue uptake at 1 h [3]: 1.02 %ID/g
- tissue uptake at 3 h [3]: 0.78 %ID/g
- tissue uptake at 24 h [3]: 0.29 %ID/g
- tissue uptake at 72 h [3]: 0.26 %ID/g
- tissue uptake at 120 h [3]: 0.3 %ID/g
- tissue uptake at 1 h [4]: 0.22 %ID/g
- tissue uptake at 3 h [4]: 0.2 %ID/g
- tissue uptake at 24 h [4]: 0.06 %ID/g
- tissue uptake at 72 h [4]: 0.03 %ID/g
- tissue uptake at 120 h [4]: 0.02 %ID/g
- tissue uptake at 1 h [5]: 3.05 %ID/g
- tissue uptake at 3 h [5]: 3.01 %ID/g
- tissue uptake at 24 h [5]: 0.76 %ID/g
- tissue uptake at 72 h [5]: 0.25 %ID/g
- tissue uptake at 120 h [5]: 0.18 %ID/g
- tissue uptake at 1 h [6]: 4.5 %ID/g
- tissue uptake at 3 h [6]: 3.98 %ID/g
- tissue uptake at 24 h [6]: 1.53 %ID/g
- tissue uptake at 72 h [6]: 0.4 %ID/g
- tissue uptake at 120 h [6]: 0.33 %ID/g
- tissue uptake at 1 h [7]: 2.8 %ID/g
- tissue uptake at 3 h [7]: 3.16 %ID/g
- tissue uptake at 24 h [7]: 0.84 %ID/g
- tissue uptake at 72 h [7]: 0.44 %ID/g
- tissue uptake at 120 h [7]: 0.19 %ID/g
- tissue uptake at 1 h [8]: 8.78 %ID/g
- tissue uptake at 3 h [8]: 6.6 %ID/g
- tissue uptake at 24 h [8]: 1.9 %ID/g
- tissue uptake at 72 h [8]: 0.68 %ID/g
- tissue uptake at 120 h [8]: 0.72 %ID/g
- tissue uptake at 1 h [9]: 1.13 %ID/g
- tissue uptake at 3 h [9]: 0.93 %ID/g
- tissue uptake at 24 h [9]: 0.27 %ID/g
- tissue uptake at 72 h [9]: 0.15 %ID/g
- tissue uptake at 120 h [9]: 0.08 %ID/g
- tissue uptake at 1 h [10]: 1.59 %ID/g
- tissue uptake at 3 h [10]: 1.25 %ID/g
- tissue uptake at 24 h [10]: 1.38 %ID/g
- tissue uptake at 72 h [10]: 0.12 %ID/g
- tissue uptake at 120 h [10]: 0.23 %ID/g
- tissue uptake at 1 h [11]: 1.16 %ID/g
- tissue uptake at 3 h [11]: 1.02 %ID/g
- tissue uptake at 24 h [11]: 0.53 %ID/g
- tissue uptake at 72 h [11]: 0.11 %ID/g
- tissue uptake at 120 h [11]: 0.08 %ID/g
- tissue uptake at 1 h [12]: 1.92 %ID/g
- tissue uptake at 3 h [12]: 1.86 %ID/g
- tissue uptake at 24 h [12]: 1.12 %ID/g
- tissue uptake at 72 h [12]: 0.95 %ID/g
- tissue uptake at 120 h [12]: 0.77 %ID/g
- tissue uptake at 1 h [13]: 0.52 %ID/g
- tissue uptake at 3 h [13]: 0.71 %ID/g
- tissue uptake at 1 h [14]: 1.78 %ID/g
- tissue uptake at 3 h [14]: 2.81 %ID/g
- tissue uptake at 1 h [15]: 5.94 %ID/g
- tissue uptake at 3 h [15]: 15.4 %ID/g
- tissue uptake at 24 h [15]: 27.4 %ID/g
- tissue uptake at 72 h [15]: 23.6 %ID/g
- tissue uptake at 120 h [15]: 23.6 %ID/g
- tissue to tissue ratio at 1 h [16]: 0.42
- tissue to tissue ratio at 3 h [16]: 1.3
- tissue to tissue ratio at 24 h [16]: 9.65
- tissue to tissue ratio at 72 h [16]: 53.9
- tissue to tissue ratio at 120 h [16]: 71.5
- tissue to tissue ratio at 1 h [17]: 3.63
- tissue to tissue ratio at 3 h [17]: 10.5
- tissue to tissue ratio at 1 h [18]: 1.32
- tissue to tissue ratio at 3 h [18]: 3.93
- tissue to tissue ratio at 1 h [19]: 5.29
- tissue to tissue ratio at 3 h [19]: 16.7
- tissue to tissue ratio at 72 h [19]: 234
- tissue to tissue ratio at 1 h [20]: 3.77
- tissue to tissue ratio at 3 h [20]: 12.6
- tissue uptake at 24 h [21]: 2.84 %ID/g
- tissue uptake at 72 h [21]: 0.45 %ID/g
- tissue uptake at 120 h [21]: 0.36 %ID/g
- tissue uptake at 24 h [22]: 0.41 %ID/g
- tissue uptake at 72 h [22]: 0.13 %ID/g
- tissue uptake at 120 h [22]: 0.07 %ID/g
- tissue uptake at 24 h [23]: 1.01 %ID/g
- tissue uptake at 72 h [23]: 0.65 %ID/g
- tissue uptake at 120 h [23]: 0.56 %ID/g
- tissue to tissue ratio at 24 h [24]: 45.3
- tissue to tissue ratio at 72 h [24]: 44.3
- tissue to tissue ratio at 120 h [24]: 27
- tissue to tissue ratio at 24 h [25]: 18
- tissue to tissue ratio at 72 h [25]: 60.3
- tissue to tissue ratio at 120 h [25]: 75.5
- tissue to tissue ratio at 24 h [26]: 102
- tissue to tissue ratio at 120 h [26]: 357
- tissue to tissue ratio at 24 h [27]: 70.9
- tissue to tissue ratio at 72 h [27]: 206
- tissue to tissue ratio at 120 h [27]: 257
